Source: the supplement of paper PMC11451515

Columns and labels:
P12-Ichikawa = assay: AUC of viability dose-response curve (% viability x log10 dose units); higher = less sensitive; settings: 48 h
Method in brief: (§1)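 Leukemia cells adapted to each medium were seeded in 1536-well plates (500 or 1000 cells/well) and given library compounds in DMSO for 48 h at 37°C. The 11 threefold doses spanned 47 μM to 0.79 nM, and CellTiter-Glo One luminescence was normalised per plate to DMSO and cell-free wells before four-parameter log-logistic fitting on log10 dose. Area under the curve was integrated with the trapezoidal rule, scaling curves above full viability and removing curves that failed quality control.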

SEM cells [1] = assay: as above; settings: 48 h
Method in brief: as §1

NOMO1 = assay: as above; settings: 48 h
Method in brief: as §1

SEM cells [2] = assay: cell viability relative to DMSO control; higher = less cytotoxic; settings: HPLM + 10% dialyzed FBS, 48 h
Method in brief: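 Leukemia cells (NOMO1 or SEM, 500 cells/well; P12-Ichikawa, 1000 cells/well) were seeded in 5 μl in 1536-well plates after at least four passages of adaptation to each medium. They received library compounds in DMSO by pin dosing, 11 threefold points from 47 μM to 0.79 nM. Luminescence with CellTiter-Glo One was read after 48 h at 37°C. Viability is stated per plate relative to DMSO wells, with cell-free wells as background.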

[3] = RPMI 5 mM glucose + 10% dialyzed FBS

Structure (SMILES) | AUC of viability dose-response curve (P12-Ichikawa; HPLM + 10% dialyzed FBS) | AUC of viability dose-response curve (P12-Ichikawa; RPMI 5 mM glucose + 10% FBS) | AUC of viability dose-response curve (P12-Ichikawa; [3]) | AUC of viability dose-response curve (SEM cells [1]; HPLM + 10% dialyzed FBS) | AUC of viability dose-response curve (SEM cells [1]; RPMI 5 mM glucose + 10% FBS) | AUC of viability dose-response curve (SEM cells [1]; [3]) | AUC of viability dose-response curve (NOMO1; HPLM + 10% dialyzed FBS) | AUC of viability dose-response curve (NOMO1; RPMI 5 mM glucose + 10% FBS) | AUC of viability dose-response curve (NOMO1; [3]) | cell viability (SEM cells [2]; 0.000781 µM) [%] | cell viability (SEM cells [2]; 0.00234 µM) [%] | cell viability (SEM cells [2]; 0.00702 µM) [%] | cell viability (SEM cells [2]; 0.0211 µM) [%] | cell viability (SEM cells [2]; 0.0632 µM) [%] | cell viability (SEM cells [2]; 0.19 µM) [%] | cell viability (SEM cells [2]; 0.569 µM) [%] | cell viability (SEM cells [2]; 1.71 µM) [%] | cell viability (SEM cells [2]; 5.12 µM) [%] | cell viability (SEM cells [2]; 15.4 µM) [%] | cell viability (SEM cells [2]; 46.1 µM) [%]
C[S+](=O)([O-])OCCCCO[S+](C)(=O)[O-] | 451 | 438 | 450 | 440 | 438 | 436 | 407 | 449 | 462 | 102 | 119 | 134 | 124 | 145 | 129 | 142 | 128 | 109 | 89.6 | 43.1
CC1(C)[C@H](C(=O)O)N2C(=O)C[C@H]2[S+]1(=O)[O-] | 468 | 470 | 469 | 472 | 468 | 472 | 396 | 411 | 420 |  |  |  |  |  |  |  |  |  |  | 
COc1nc(N)nc2c1ncn2[C@@H]1O[C@H](CO)[C@@H](O)[C@@H]1O | 455 | 462 | 456 | 472 | 449 | 463 | 458 | 444 | 448 |  |  |  |  |  |  |  |  |  |  | 
COC1=CC(c2cc3ccccc3[nH]2)=N/C1=C/c1[nH]c(C)cc1C | 455 | 450 | 452 | 436 | 420 | 391 | 463 | 470 | 448 |  |  |  |  |  |  |  |  |  |  | 
O=C(O)/C=C/c1ccc(Cn2ccnc2)cc1 | 438 | 436 | 464 | 466 | 471 | 473 | 469 | 438 | 460 |  |  |  |  |  |  |  |  |  |  | 
COc1cccc2c1C(=O)c1c(O)c3c(c(O)c1C2=O)C[C@@](O)(C(=O)CO)C[C@@H]3O[C@H]1C[C@H](N)[C@@H](O)[C@H](C)O1 | 364 | 359 | 363 | 359 | 309 | 327 | 369 | 362 | 365 |  |  |  |  |  |  |  |  |  |  | 
Nc1ncnc2c1ncn2[C@@H]1O[C@H](CO)[C@@H](O)[C@H]1O |  |  |  | 462 | 454 | 463 | 388 | 402 | 397 |  |  |  |  |  |  |  |  |  |  | 
